Test results reported in ChEMBL document CHEMBL3832549, “DailyMed|setid=7633c9b3-dfb5-446f-a260-e44b6e48afa2 | BUDESONIDE- budesonide capsule|Carilion Materials Management”.

Legend:
[1] = (§1) Evaluation of pharmacokinetic parameters for Budesonide following single oral administration of Budesonide capsules (enteric coated) to healthy subjects and/or patients with Crohn's disease.; format: ADME, organism-based; design: dose 9 mg, route oral; details: human, in vivo, dosed compound id 9, dosed compound name BUDESONIDE, regimen Single dose, tissue Plasma
Homo sapiens = test: as §1; format: ADME, organism-based; design: dose 9 mg, route oral; details: in vivo, po, dosed compound id 9, dosed compound name BUDESONIDE, gender male and female, regimen Single dose, tissue Plasma
[2] = po, 9 mg, gender male and female

Structure (SMILES): CCCC1O[C@@H]2C[C@H]3[C@@H]4CCC5=CC(=O)C=C[C@]5(C)[C@H]4[C@@H](O)C[C@]3(C)[C@]2(C(=O)CO)O1 (stereo not given in full) [BUDESONIDE]
- Tmax ([1]; 9 mg, route oral): 0.5 to 10 h
- AUC [1, 2]: 0.03 µM·h
- Cmax [1, 2]: 5 nM
- fraction unbound ([1]; po, at 9 mg, gender male and female, route oral, read-out: Protein binding): 0.1 to 0.15
- Vd (Homo sapiens): 2.2 to 3.9 L/kg
